Data published in patent US5668152A, “Protein kinase C inhibitors” (priority 1995, dated 1997).
Where two headings read alike, the source gives them in different places.

Experiments:
protein kinase C beta-1 = protein kinase C beta-1 (Homo sapiens, UniProt P05771); assay: PKC Enzyme assay, beta I isozyme; type: biochemical
Experimental: (§1) PKC enzymes=alpha, beta I, beta II, gamma, delta, epsilon, eta and zeta.
(§2) Assay components in a total volume of 250 μL are the following:
(§3) Vesicles consisting of 120 μg/mL phosphatidylserine (Avanti Polar Lipids) and sufficient diacylglycerol (Avanti Polar Lipids) to activate the enzyme to maximum activity in 20 mM HEPES buffer (Sigma, St. Louis, Mo.), pH 7.5, 940 μM calcium chloride (Sigma, St. Louis, Mo.) for assaying the alpha, beta I, beta II and gamma enzyme only, 1 mM EGTA for all the enzymes, 10 mM magnesium chloride (Sigma, St. Louis, Mo.) and 30 μM (gamma-32P) ATP (DuPont). For all the enzymes either histone type HL (Worthington) or myelin basic protein is used as substrate. The assay is started by addition of protein kinase C enzyme incubated at 30° C. for 10 minutes and stopped by adding 0.5 mL of cold trichloroacetic acid (Amresco) followed by 100 μL of 1 mg/mL bovine serum albumin (Sigma, St. Louis, Mo.). The precipitate is collected by vacuum filtration on glass fiber filters employing a TOMTEC™ filtration system and quantified by counting in a beta scintillation counter.

protein kinase C eta = protein kinase C eta (Homo sapiens, UniProt P24723); assay: PKC Enzyme assay, eta isozyme; type: biochemical
Experimental: as §1, §2, §3

protein kinase C epsilon = biological target: T1, protein kinase C epsilon (Homo sapiens, UniProt Q02156); assay: PKC Enzyme assay, epsilon isozyme; type: biochemical
T1 sequence (Q02156 1-737): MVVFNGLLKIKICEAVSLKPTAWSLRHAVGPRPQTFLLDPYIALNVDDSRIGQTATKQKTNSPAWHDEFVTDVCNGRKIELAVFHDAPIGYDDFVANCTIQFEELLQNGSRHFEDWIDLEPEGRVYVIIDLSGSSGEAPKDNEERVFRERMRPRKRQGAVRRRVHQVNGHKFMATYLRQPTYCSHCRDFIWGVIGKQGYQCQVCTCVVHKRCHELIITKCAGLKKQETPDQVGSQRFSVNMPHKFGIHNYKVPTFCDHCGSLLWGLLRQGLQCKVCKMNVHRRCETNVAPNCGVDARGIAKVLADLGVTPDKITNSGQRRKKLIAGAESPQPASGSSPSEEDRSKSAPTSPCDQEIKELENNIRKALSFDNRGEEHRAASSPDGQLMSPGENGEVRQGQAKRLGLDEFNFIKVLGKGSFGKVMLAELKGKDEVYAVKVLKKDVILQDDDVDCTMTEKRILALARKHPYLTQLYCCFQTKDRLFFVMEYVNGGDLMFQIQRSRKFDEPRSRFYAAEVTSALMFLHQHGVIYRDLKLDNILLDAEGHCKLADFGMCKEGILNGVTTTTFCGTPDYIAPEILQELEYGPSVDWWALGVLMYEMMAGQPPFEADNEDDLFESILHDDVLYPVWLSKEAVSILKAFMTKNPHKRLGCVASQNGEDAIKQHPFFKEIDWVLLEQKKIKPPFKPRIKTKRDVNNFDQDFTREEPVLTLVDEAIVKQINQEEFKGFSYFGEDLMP
Experimental: as §1, §2, §3

protein kinase C beta-2 = protein kinase C beta-2 (Homo sapiens, UniProt P05771); assay: PKC Enzyme assay, beta II isozyme; type: biochemical
Experimental: as §1, §2, §3

protein kinase C zeta = biological target: T2, protein kinase C zeta (Homo sapiens, UniProt Q05513); assay: PKC Enzyme assay, zeta isozyme; type: biochemical
T2 sequence (Q05513 1-592): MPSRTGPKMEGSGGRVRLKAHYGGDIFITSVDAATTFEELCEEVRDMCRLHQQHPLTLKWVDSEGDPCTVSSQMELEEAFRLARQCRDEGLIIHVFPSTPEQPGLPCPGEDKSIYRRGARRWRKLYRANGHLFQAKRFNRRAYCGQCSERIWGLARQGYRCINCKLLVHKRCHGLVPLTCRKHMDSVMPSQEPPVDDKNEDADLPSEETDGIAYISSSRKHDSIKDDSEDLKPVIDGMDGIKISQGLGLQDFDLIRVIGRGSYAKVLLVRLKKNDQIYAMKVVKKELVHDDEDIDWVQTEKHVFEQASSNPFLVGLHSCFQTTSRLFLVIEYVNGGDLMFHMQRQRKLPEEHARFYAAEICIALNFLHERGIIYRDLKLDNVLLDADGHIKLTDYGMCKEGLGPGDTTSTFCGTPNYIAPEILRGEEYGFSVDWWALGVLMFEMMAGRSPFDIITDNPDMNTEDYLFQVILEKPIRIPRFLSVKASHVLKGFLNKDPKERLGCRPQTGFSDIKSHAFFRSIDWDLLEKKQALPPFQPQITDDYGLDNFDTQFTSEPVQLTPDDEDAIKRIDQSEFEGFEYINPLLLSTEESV
Experimental: as §1, §2, §3

protein kinase C alpha = protein kinase C alpha (Homo sapiens, UniProt P17252); assay: PKC Enzyme assay, alpha isozyme; type: biochemical
Experimental: as §1, §2, §3

protein kinase C gamma = protein kinase C gamma (Homo sapiens, UniProt P05129); assay: PKC Enzyme assay, gamma isozyme; type: biochemical
Experimental: as §1, §2, §3

protein kinase C delta = protein kinase C delta (Homo sapiens, UniProt Q05655); assay: biochemical
Experimental: as §1, §2, §3

[1] = PKC beta-1, 30 μM ATP, 30° C., 10 minutes, read-out: IC50 β1
[2] = PKC eta, 30 μM ATP, 30° C., 10 minutes, read-out: IC50 η
[3] = PKC epsilon, 30 μM ATP, 30° C., 10 minutes, read-out: IC50 ε
[4] = PKC beta-2, 30 μM ATP, 30° C., 10 minutes, read-out: IC50 β2
[5] = PKC zeta, 30 μM ATP, 30° C., 10 minutes, read-out: IC50 ζ
[6] = PKC alpha, 30 μM ATP, 30° C., 10 minutes, read-out: IC50 α
[7] = PKC gamma, 30 μM ATP, 30° C., 10 minutes, read-out: IC50 γ
[8] = PKC delta, 30 μM ATP, 30° C., 10 minutes, read-out: IC50 δ

Sequence of protein kinase C delta (Q05655 whole entry): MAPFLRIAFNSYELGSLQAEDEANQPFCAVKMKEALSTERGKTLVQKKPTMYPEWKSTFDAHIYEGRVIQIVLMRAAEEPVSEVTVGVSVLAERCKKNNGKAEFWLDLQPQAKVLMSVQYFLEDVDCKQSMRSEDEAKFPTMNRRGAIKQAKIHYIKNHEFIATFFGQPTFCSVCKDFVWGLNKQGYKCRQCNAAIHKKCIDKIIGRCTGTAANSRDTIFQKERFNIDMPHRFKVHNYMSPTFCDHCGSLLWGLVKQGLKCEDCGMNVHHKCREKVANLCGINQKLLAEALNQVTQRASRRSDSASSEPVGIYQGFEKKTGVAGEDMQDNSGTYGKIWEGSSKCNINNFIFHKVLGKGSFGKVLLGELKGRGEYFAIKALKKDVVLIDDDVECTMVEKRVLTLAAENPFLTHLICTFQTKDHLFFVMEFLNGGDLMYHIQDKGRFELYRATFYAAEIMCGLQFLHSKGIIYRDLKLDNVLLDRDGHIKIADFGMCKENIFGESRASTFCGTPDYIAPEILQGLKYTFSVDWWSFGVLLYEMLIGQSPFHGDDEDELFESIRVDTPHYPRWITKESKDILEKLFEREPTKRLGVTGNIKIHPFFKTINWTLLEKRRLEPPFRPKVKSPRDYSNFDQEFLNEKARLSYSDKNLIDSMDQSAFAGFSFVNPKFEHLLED
Sequence of protein kinase C eta (P24723 whole entry): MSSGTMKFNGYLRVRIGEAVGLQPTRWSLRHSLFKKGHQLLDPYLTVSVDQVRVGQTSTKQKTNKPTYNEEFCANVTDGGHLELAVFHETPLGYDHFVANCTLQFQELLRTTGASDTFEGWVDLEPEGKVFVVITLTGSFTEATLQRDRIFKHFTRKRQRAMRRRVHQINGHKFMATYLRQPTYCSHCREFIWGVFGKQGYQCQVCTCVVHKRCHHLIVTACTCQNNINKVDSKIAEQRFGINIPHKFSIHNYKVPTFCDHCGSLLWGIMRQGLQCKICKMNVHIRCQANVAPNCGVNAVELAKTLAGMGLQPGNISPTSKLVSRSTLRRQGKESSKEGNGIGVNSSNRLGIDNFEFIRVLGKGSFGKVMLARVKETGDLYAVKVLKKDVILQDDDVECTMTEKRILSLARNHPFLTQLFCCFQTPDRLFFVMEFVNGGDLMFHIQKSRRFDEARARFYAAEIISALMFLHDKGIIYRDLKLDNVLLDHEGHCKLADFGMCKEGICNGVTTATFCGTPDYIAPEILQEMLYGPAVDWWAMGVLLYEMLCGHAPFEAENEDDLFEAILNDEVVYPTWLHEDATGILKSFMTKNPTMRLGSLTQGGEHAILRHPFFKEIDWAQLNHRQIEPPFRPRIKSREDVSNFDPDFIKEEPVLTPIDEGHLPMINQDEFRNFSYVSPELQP
Sequence of protein kinase C beta-2 (P05771 1-673 isoform P05771-2): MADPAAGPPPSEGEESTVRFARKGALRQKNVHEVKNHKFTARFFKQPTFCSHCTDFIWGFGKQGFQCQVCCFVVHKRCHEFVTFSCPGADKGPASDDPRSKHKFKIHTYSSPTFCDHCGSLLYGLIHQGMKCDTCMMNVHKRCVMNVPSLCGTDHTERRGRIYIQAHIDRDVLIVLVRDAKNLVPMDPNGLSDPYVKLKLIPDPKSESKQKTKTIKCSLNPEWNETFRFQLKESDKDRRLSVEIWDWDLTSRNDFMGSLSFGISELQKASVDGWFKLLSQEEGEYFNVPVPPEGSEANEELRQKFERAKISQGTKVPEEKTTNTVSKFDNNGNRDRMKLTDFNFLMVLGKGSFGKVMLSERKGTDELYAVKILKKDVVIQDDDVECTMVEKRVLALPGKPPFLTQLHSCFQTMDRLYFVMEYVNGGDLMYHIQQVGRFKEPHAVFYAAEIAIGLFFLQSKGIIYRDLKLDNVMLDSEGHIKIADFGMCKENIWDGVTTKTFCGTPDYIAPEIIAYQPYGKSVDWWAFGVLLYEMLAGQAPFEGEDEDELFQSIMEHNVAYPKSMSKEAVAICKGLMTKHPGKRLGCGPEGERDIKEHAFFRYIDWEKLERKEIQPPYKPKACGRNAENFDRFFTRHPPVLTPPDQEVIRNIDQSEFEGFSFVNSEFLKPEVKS
Sequence of protein kinase C beta-1 (P05771 whole entry): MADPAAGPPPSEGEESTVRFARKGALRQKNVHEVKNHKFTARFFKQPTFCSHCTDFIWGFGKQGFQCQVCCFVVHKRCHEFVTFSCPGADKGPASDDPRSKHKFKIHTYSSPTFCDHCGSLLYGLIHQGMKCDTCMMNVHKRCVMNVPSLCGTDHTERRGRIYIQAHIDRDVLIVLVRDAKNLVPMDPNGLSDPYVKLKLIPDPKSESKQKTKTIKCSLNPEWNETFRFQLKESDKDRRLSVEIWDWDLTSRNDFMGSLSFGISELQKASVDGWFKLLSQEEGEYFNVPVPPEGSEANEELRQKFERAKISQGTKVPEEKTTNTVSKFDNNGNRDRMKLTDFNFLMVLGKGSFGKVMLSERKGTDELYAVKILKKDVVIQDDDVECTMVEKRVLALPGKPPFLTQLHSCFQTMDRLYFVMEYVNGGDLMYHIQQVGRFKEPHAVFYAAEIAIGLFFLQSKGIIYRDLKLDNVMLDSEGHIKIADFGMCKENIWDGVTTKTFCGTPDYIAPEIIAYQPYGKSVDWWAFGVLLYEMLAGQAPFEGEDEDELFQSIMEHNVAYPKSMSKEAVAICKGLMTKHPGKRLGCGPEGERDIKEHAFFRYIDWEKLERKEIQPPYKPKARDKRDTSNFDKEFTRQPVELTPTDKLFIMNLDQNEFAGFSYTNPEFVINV

| Compound | IC50 (protein kinase C beta-1; [1]) | IC50 (protein kinase C eta; [2]) | IC50 (protein kinase C epsilon; [3]) | IC50 (protein kinase C beta-2; [4]) | IC50 (protein kinase C zeta; [5]) | IC50 (protein kinase C alpha; [6]) | IC50 (protein kinase C gamma; [7]) | IC50 (protein kinase C delta; [8]) | IC50 (protein kinase C beta-1) | IC50 (protein kinase C eta) | IC50 (protein kinase C epsilon) | IC50 (protein kinase C beta-2) | IC50 (protein kinase C alpha) | IC50 (protein kinase C gamma) | IC50 (protein kinase C delta) | IC50 (protein kinase C zeta) |
| --- | --- | --- | --- | --- | --- | --- | --- | --- | --- | --- | --- | --- | --- | --- | --- | --- |
| CC(=O)OCC1(COC(C)=O)CCn2c(c(C3=C(c4cn(C)c5ccccc45)C(=O)NC3=O)c3ccccc32)C1 [Example 1, 3-[8,8-bis(acetoxymethylene)-6,7,8,9-tetrahydropyrido[1,2-a]indol-10-yl]-4-(1-methyl-3-indolyl)-1H-pyrrole-2,5-dione] | 360 nM | 121000 nM | 150000 nM | 300 nM | 50000 nM | 9800 nM | 38000 nM | 47000 nM | – | – | – | – | – | – | – | – |
| Cn1cc(C2=C(c3c4n(c5ccccc35)CCC(CO)(CO)C4)C(=O)NC2=O)c2ccccc21 [Example 2, 3-[8,8-bis(hydroxymethylene)-6,7,8,9-tetrahydropyrido[1,2-a]indol-10-yl]-4-(1-methyl-3-indolyl)-1H-pyrrole-2,5-dione] | 70 nM | 5700 nM | 31800 nM | 60 nM | 33000 nM | 3500 nM | 8800 nM | 6800 nM | – | – | – | – | – | – | – | – |
| CC(=O)NC[C@H]1O[C@H](OCCn2cc(C3=C(c4cn(C)c5ccccc45)C(=O)NC3=O)c3ccccc32)C[C@@H]1O [Example 3] | 36 nM | 1100 nM | 600 nM | 25 nM | 46000 nM | 320 nM | 4400 nM | 410 nM | – | – | – | – | – | – | – | – |
| Cn1cc(C2=C(c3cn(C4CCN(Cc5ccccc5)CC4)c4ccccc34)C(=O)NC2=O)c2ccccc21 [Example 4, 3-(1-[4-(1-benzyl)-piperidinyl]-3-indolyl)-4-(1-methyl-3-indolyl)-1H-pyrrole-2,5-dione] | 50 nM | 500 nM | 4000 nM | 30 nM | – | 6000 nM | 7000 nM | 6000 nM | – | – | – | – | – | – | – | – |
| Cn1cc(C2=C(c3cn(C4CCN(C(=NC(=O)OC(C)(C)C)NC(=O)OC(C)(C)C)CC4)c4ccccc34)C(=O)NC2=O)c2ccccc21 [Example 5, [t-Butoxycarbonylimino-(4-{3-[4-(1-methyl-1H-indol-3-yl)-2,5-dioxo-2,5-dihydro-1H-pyrrole-3-yl]-indol-1-yl}-piperidin-1-yl)-methyl]-carbamic acid t-butyl ester] | 44 nM | 150 nM | 2600 nM | 29 nM | 42000 nM | 370 nM | 500 nM | 470 nM | – | – | – | – | – | – | – | – |
| Cn1cc(C2=C(c3cn(C4CCN(C(=O)OC(C)(C)C)CC4)c4ccccc34)C(=O)NC2=O)c2ccccc21 [Example 6, 3-(1-[4-(1-t-butoxycarbonyl)-piperidinyl]-3-indolyl)-4-(1-methyl-3-indolyl)-1H-pyrrole-2,5-dione] | – | – | – | – | – | – | – | – | 220 nM | 300 nM | 4400 nM | 82 nM | 6100 nM | 5300 nM | 7300 nM | – |
| CC(C)(C)OC(=O)N1CCC(n2cc(C3=C(c4c[nH]c5ccccc45)C(=O)NC3=O)c3ccccc32)CC1 [Example 7] | 230 nM | 6200 nM | 6300 nM | 100 nM | 31000 nM | 3300 nM | 2800 nM | 4100 nM | – | – | – | – | – | – | – | – |
| CC(C)N1CCC(n2cc(C3=C(c4cn(C)c5ccccc45)C(=O)NC3=O)c3ccccc32)CC1 [Example 8, 3-[1-(1-i-Propyl-piperidin-4-yl)-1H-indol-3-yl]-4-(1-methyl-1H-indol-3-yl)-pyrrole-2,5-dione] | 19 nM | 130 nM | 390 nM | 26 nM | 9300 nM | 340 nM | 1300 nM | 970 nM | – | – | – | – | – | – | – | – |
| Cn1cc(C2=C(c3c4n(c5ccccc35)CCC(CO)C4)C(=O)NC2=O)c2ccccc21 (stereo not drawn) [Example 9, 3-[8-(Hydroxymethyl)-6,7,8,9-tetrahydropyrido[1,2-a]indol-10-yl]-4-(1-methyl-3-indolyl)-1H-pyrrole-2,5 dione] | 14 nM | 400 nM | 3800 nM | 6.1 nM | 9260 nM | 270 nM | 1500 nM | 440 nM | – | – | – | – | – | – | – | – |
| CN(C)CCCn1cc(C2=C(c3c[nH]c4ccccc34)C(=O)NC2=O)c2ccccc21 [Example 10] | – | – | – | – | – | – | – | – | 50 nM | 90 nM | 930 nM | 50 nM | 660 nM | 1040 nM | 920 nM | 23000 nM |
| CN(C)CCCn1cc(C2=C(c3cn(C)c4ccccc34)C(=O)NC2=O)c2ccccc21 [Example 13] | – | 470 nM | 3600 nM | – | 25000 nM | – | 1700 nM | 930 nM | 140 nM | – | – | 60 nM | – | – | – | – |
| CCN1CCC(n2cc(C3=C(c4cn(C)c5ccccc45)C(=O)NC3=O)c3ccccc32)CC1 [Example 40, 3-[1-(1-Ethyl-piperidin-4-yl)-indol-3-yl]-4-(1-methyl-indol-3-yl)-pyrrole-2,5-dione] | 20 nM | 40 nM | 400 nM | 5 nM | – | 400 nM | 300 nM | 300 nM | – | – | – | – | – | – | – | – |
| Cn1cc(C2=C(c3cn(C4CCN(Cc5ccccn5)CC4)c4ccccc34)C(=O)NC2=O)c2ccccc21 [Example 49] | – | – | 300 nM | – | 8000 nM | – | 2000 nM | – | – | – | – | – | – | – | – | – |
| Cn1cc(C2=C(c3cn(C4CCNCC4)c4ccccc34)C(=O)NC2=O)c2ccccc21 [Example 52] | – | 200 nM | 1000 nM | – | 4000 nM | – | – | – | – | – | – | – | – | – | – | – |
| Cn1cc(C2=C(c3cn(CCO[C@@H]4O[C@H](CN=[N+]=[N-])[C@H](O)[C@H](O)[C@H]4O)c4ccccc34)C(=O)NC2=O)c2ccccc21 [Example 57] | 1600 nM | 4000 nM | > 100000 nM | 360 nM | > 100000 nM | 10000 nM | – | 9000 nM | – | – | – | – | – | – | – | – |
| Cn1cc(C2=C(c3cn(CCO[C@H]4O[C@H](CN)[C@H](O)[C@H](O)[C@H]4O)c4ccccc34)C(=O)NC2=O)c2ccccc21 [Example 65] | 390 nM | 3400 nM | – | – | 47000 nM | 8100 nM | 30000 nM | 8400 nM | – | – | – | – | – | – | – | – |
| Cn1cc(C2=C(c3cn(CCOC4OC(CN)C(O)C(O)C4O)c4ccccc34)C(=O)NC2=O)c2ccccc21 (stereo not drawn) [Example 66] | 240 nM | 3000 nM | – | – | 37000 nM | 9000 nM | 30000 nM | 4400 nM | – | – | – | – | – | – | – | – |
